Assay results as given in patent publication US4808596A, “Imidazo[4,5-b]pyridine compounds and pharmaceutical compositions containing same” (Tokyo Tanabe Company, Ltd., priority 1986, dated 1989).
Where two headings read alike, the source gives them in different places.

Experiments:
[1] = system: Indomethacin ulcer; assay: Inhibitory effect on indomethacin ulcer; format: in vivo, male Wistar rats; conditions: Rattus norvegicus; oral, rats; 30 minutes before indomethacin 25 mg/kg s.c.; 7 hours; read-out: Inhibitory effect on Indomethacin ulcer, ID50
Protocol: (§1) The inhibitory effects of the present compounds [I] on various experimental ulcers were tested by using male Wistar rats, weighing about 200 g, in groups of six and determining the respective ulceration indexes for 5 types of experimental ulcers. In each test, the test compounds were suspended in a 0.5% aqueous solution of carboxymethyl cellulose and administered orally in a series of appropriately selected doses ranging from 1 to 100 mg/kg. The test procedures for 5 types of experimental ulcers were as follows:
To rats which had been fasted for 24 hours, indomethacin was subcutaneously administered in a dose of 25 mg/kg. After 7 hours, each rat was sacrificed and the length of the ulcer(s) formed in the glandular stomach part was measured. The ulceration index was calculated on the basis of the data thus obtained. The test compounds were administered 30 minutes before administration of indomethacin.
(§2) The pharmacological effect of the test compounds on each of the aforesaid experimental ulcers was evaluated on the basis of the dose (in mg/kg) required to inhibit the formation of ulcers by 50% (hereinafter referred to as ID50). The ID50 value of each test compound was determined by calculating the difference in ulceration index between the untreated group and each treated group, dividing the difference by the ulceration index of the untreated group to obtain the degree of inhibition, and constructing a dose-response curve on the basis of the data thus obtained. For purposes of comparison, the ID50 values of Omeprazole and Compounds α and β were determined in the same manner as described above and are also shown in Table 4.

[2] = system: Shay's ulcer; assay: Inhibitory effect on Shay's ulcer; format: in vivo, male Wistar rats; conditions: Rattus norvegicus; oral, rats; 30 minutes before ligation; 14 hours; read-out: Inhibitory effect on Shay's ulcer, ID50
Protocol: as §1
In rats which had been fasted for 48 hours, the pyloric end of the stomach was ligated and they were maintained for 14 hours without giving any food or water. Then, each rat was sacrificed and the area of the ulcer(s) formed in the forestomach part was measured. The ulceration index was calculated on the basis of the data thus obtained. The test compounds were administered 30 minutes before ligation.
as §2

[3] = system: Water-immersion stress ulcer; assay: Inhibitory effect on water-immersion stress ulcer; format: in vivo, male Wistar rats; conditions: Rattus norvegicus; oral, rats; 10 minutes before exposure to the stress; 10 hours; read-out: Inhibitory effect on Water-immersion stress ulcer, ID50
Protocol: as §1
Rats which had been fasted for 15 hours were immobilized in stress cages and immersed chest-deep in a water bath at 21° C. After 10 hours, each rat was sacrificed and the length of the ulcer(s) formed in the glandular stomach part was measured. The ulceration index was calculated on the basis of the data thus obtained. The test compounds were administered 10 minutes before exposure to the stress.
as §2

[4] = physchem; format: physicochemical; conditions: for remaining at 192 h: solid
Protocol: The storage stability of the present compounds [I] was tested by allowing each test compound to stand under severe conditions (i.e., a temperature of 60° C. and a relative humidity of 75%) for 8 days and then determining its percentage of residue according to a thin-layer densitometric method (Bunseki Kagaku, Vol. 23, No. 9, p. 1016, 1974). More specifically, upon completion of the severe treatment, 100 μg of each test compound was applied to a thin-layer plate and this plate was developed with a chloroform-ethanol mixture (volume ratio 10:1). The thin-layer plate used for this purpose was a TLC Plate Aluminum Oxide 60F254 (manufactured by Merck Co.; 0.25 mm in thickness and 20 cm×20 cm in size), and it was developed over a distance of 15 cm. Then, using a Shimazu Two-wavelength Chromatoscanner CS-910 (manufactured by Shimazu Seisakusho), the resulting spot was analyzed at a wavelength of 300-315 nm.
For purposes of comparison, the percentages of residue of Omeprazole (at a measuring wavelength of 300 nm) and Compounds α and β (at a measuring wavelength of 310 nm) were determined in the same manner as described above and are also shown in Table 1.

[5] = system: gastric acid secretion; assay: Inhibitory effect on gastric acid secretion (pylorus ligation); format: in vivo, male Wistar rats; conditions: for ED50: Rattus norvegicus, po, rats, total acidity of gastric juice 4 hours after pylorus ligation; for inhibitory effect on gastric acid secretion (in words): in vivo
Protocol: The inhibitory effect of the present compounds [I] on gastric acid secretion was tested by using male Wistar rats, weighing about 200 g, in groups of five. To these rats which had been fasted overnight, the test compounds were orally administered in a series of appropriately selected doses ranging from 1 to 100 mg/kg. Then, the pyloric end of the stomach was ligated. After the lapse of 4 hours, the total acidity of gastric juice of each rat was measured. More specifically, the test compounds were suspended in a 0.5% aqueous solution of carboxymethyl cellulose and administered to the rats 30 minutes before ligation. Gastric juice was collected by sacrificing and laparotomizing each rat. The total acidity of gastric juice was determined by titrating the gastric juice with a 0.1 N aqueous solution of sodium hydroxide until a pH of 7.0 was reached. As a control experiment, the total acidity of gastric juice of an untreated group was determined in the same manner as described above. The inhibitory effect of the test compounds on gastric acid secretion was evaluated on the basis of the dose (in mg/kg) required to inhibit gastric acid secretion, i.e. the total acidity of gastric juice, by 50% (hereinafter referred to as ED50). The ED50 value of each test compound was determined by calculating the difference in total acidity between the untreated group and each treated group, dividing the difference by the total acidity of the untreated group to obtain the degree of inhibition, and constructing a dose-response curve on the basis of the data thus obtained. For purposes of comparison, the ED50 values of Omeprazole and Compounds α and β were determined in the same manner as described above and are also shown in Table 3.

[6] = system: Hydrochloric acid-ethanol ulcer; assay: Inhibitory effect on hydrochloric acid-ethanol ulcer; format: in vivo, male Wistar rats; conditions: Rattus norvegicus; oral, rats; 30 minutes before hydrochloric acid-ethanol; 1 hour; read-out: Inhibitory effect on Hydrochloric acid-ethanol ulcer, ID50
Protocol: as §1
To rats which had been fasted for 24 hours, a 150 mM hydrochloric acid-60% ethanol mixture was orally administered in an amount of 0.5 ml per 100 g of body weight. After an hour, each rat was sacrificed and the length of the ulcer(s) formed in the glandular stomach part was measured. The ulceration index was calculated on the basis of the data thus obtained. The test compounds were administered 30 minutes before administration of the hydrochloric acid-ethanol mixture.
as §2

[7] = Acute toxicity test (LD50); conditions: rat, in vivo, rats
Protocol: The acute toxicity (LD50) of several typical examples of the present compounds [I] (i.e., the compounds of Examples 1, 8, 13, 19, 24, 26 and 33) was tested with 5-weeks-old male Wistar rats. […] When Omeprazole was administered orally, its LD50 value was greater than 4000 mg/kg.

[8] = ip, intraperitoneal administration

storage stability (in words) [4]	SMILES	ED50 [1] [mg/kg]	ED50 [2] [mg/kg]	ED50 [3] [mg/kg]	remaining at 192 h ([4]; 75% rh) [%]	ED50 [5] [mg/kg]	inhibitory effect on gastric acid secretion (in words) [5]	ED50 [6] [mg/kg]	LD50 [7, 8] [mg/kg]	LD50 ([7]; oral administration) [mg/kg]	remaining at 192 h ([4]; after treatment at 60° C. and 75% RH for 8 days, read-out: Storage stability, Percentage of residue) [%]
defective in storage stability	COc1c(C)cnc(C[S+]([O-])c2nc3ncc(Br)cc3[nH]2)c1C (stereo not drawn) [Compound α, 2-[2-(3,5-dimethyl-4-methoxy)pyridylmethylsulfinyl]-6-bromoimidazo[4,5-b]pyridine, reference compound]	78.4	≥ 100	≥ 100	0	73	not satisfactorily reflected in the in vivo tests	63.3	–	–	–
defective in storage stability	COc1c(C)cnc(C[S+]([O-])c2nc3ncc(C)cc3[nH]2)c1C (stereo not drawn) [Compound β, 2-[2-(3,5-dimethyl-4-methoxy)pyridylmethylsulfinyl]-6-methylimidazo[4,5-b]-pyridine, reference compound]	29.5	42	63.3	9	41	not satisfactorily reflected in the in vivo tests	25.4	–	–	–
–	COc1ccc2[nH]c([S+]([O-])Cc3ncc(C)cc3C)nc2n1 (stereo not drawn) [Example 1, 2-[2-(3,5-Dimethyl)pyridylmethylsulfinyl]-5-methoxyimidazo[4,5-b]pyridine]	12.9	11	26.4	98	13	–	5.1	> 500	> 4000	–
–	CCOc1ccc2[nH]c([S+]([O-])Cc3ncc(C)c(C)c3C)nc2n1 (stereo not drawn) [Example 8, 2-[2-(3,4,5-Trimethyl)pyridylmethylsulfinyl]-5-ethoxyimidazo[4,5-b]pyridine]	18.8	15.1	34.2	96	12	–	8.2	> 500	> 4000	–
–	COc1cc(C[S+]([O-])c2nc3nc(OCC4CC4)ccc3[nH]2)ncc1C (stereo not drawn) [Example 13, 2-[2-(4-Methoxy-5-methyl)pyridylmethylsulfinyl]-5-cyclopropylmethyloxyimidazo[4,5-b]pyridine]	21.9	17.4	37.3	88	18	–	9.6	> 500	> 4000	–
–	COc1c(C)cnc(C[S+]([O-])c2nc3nc(OCC4CC4)ccc3[nH]2)c1C (stereo not drawn) [Example 24, 2-[2-(3,5-Dimethyl-4-methoxy)pyridylmethylsulfinyl]-5-cyclopropylmethyloxyimidazo[4,5-b]pyridine]	13.1	10.8	27	94	9	–	3.5	> 500	> 4000	–
–	COc1c(C)cnc(C[S+]([O-])c2nc3nc(OCC(F)(F)F)ccc3[nH]2)c1C (stereo not drawn) [Example 26, 2-[2-(3,5-Dimethyl-4-methoxy)pyridylmethylsulfinyl]-5-(2,2,2-trifluoroethoxy)imidazo[4,5-b]pyridine]	15.8	14.7	30.5	92	15	–	7.9	> 500	> 4000	–
–	CCCCCCCOc1ccc2[nH]c([S+]([O-])Cc3ncc(C)cc3C)nc2n1 (stereo not drawn) [Example 33, 2-[2-(3,5-Dimethyl)pyridylmethylsulfinyl]-5-n-heptyloxyimidazo[4,5-b]pyridine]	23.2	19.2	35.1	89	17	–	10.3	> 500	> 4000	–

SMILES	storage stability (in words) [4]	ED50 [1] [mg/kg]	ED50 [2] [mg/kg]	ED50 [3] [mg/kg]	remaining at 192 h ([4]; 75% rh) [%]	ED50 [5] [mg/kg]	inhibitory effect on gastric acid secretion (in words) [5]	ED50 [6] [mg/kg]	LD50 [7, 8] [mg/kg]	LD50 ([7]; oral administration) [mg/kg]	remaining at 192 h ([4]; after treatment at 60° C. and 75% RH for 8 days, read-out: Storage stability, Percentage of residue) [%]
COc1ccc2[nH]c([S+]([O-])Cc3ncc(C)c(OC)c3C)nc2c1 (stereo not drawn) [Omeprazole, reference compound]	undergoes a higher degree of deterioration than might be expected	24.7	30.3	39.7	–	35	–	13.6	–	> 4000	3
